For 60 molecules, IC50 results are on record in patent publication US7776862B2, “Pyridyl and phenyl substituted piperazine-piperidines with CXCR3 antagonist activity” (Schering Corporation, priority 2005, dated 2010).

Bounds are passed on as bounds.

The term IC50 denotes the midpoint of a concentration-inhibition curve.

The target in the experiment is T1, human CXCR3 (N-delta 4) (Homo sapiens, UniProt P49682).
T1 construct: CD8 leader; Flag tag; expressed in transfected cells; membranes used
T1 sequence (P49682 5-368 limits assumed): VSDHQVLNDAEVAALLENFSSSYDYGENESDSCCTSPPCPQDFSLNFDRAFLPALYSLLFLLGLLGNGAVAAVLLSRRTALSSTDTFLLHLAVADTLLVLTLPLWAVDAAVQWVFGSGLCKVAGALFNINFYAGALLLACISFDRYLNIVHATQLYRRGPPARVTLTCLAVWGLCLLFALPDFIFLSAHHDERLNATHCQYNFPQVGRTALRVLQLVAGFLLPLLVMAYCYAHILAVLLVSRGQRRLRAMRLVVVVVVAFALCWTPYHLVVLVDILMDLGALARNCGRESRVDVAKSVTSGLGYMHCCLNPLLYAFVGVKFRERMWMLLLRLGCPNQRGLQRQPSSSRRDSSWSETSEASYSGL
In words: Human CXCR3 (N-delta 4) scintillation proximity assay (SPA), [125I] IP-10 binding. The conditions noted are these: IC50 rating; Ba/F3-hCXCR3 (N-delta 4) membranes, 25 pM [125I] IP-10. A digest of the protocol:
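IP-10 and compound titrations added together. The receptor source was SPA beads bearing membranes from Ba/F3 cells transfected with human CXCR3 (N-delta 4) carrying a CD8 leader and Flag tag.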
(Scintillation proximity formats need no separation of bound from free tracer.)
`CC[C@H]1CN(c2ncc(CO)cc2Cl)CCN1C1CCN(Cc2ccc(Br)cc2F)CC1` [compound 383] returned an IC50 of under 0.025 µM.
`CC[C@H]1CN(c2ncc(CNS(=O)(=O)N(C)C)cc2Cl)CCN1C1CCN(Cc2ccc(Br)cc2F)CC1` [compound 384] registered an IC50 of under 0.025 µM.
With `CCNC(=O)NCc1cnc(N2CCN(C3CCN(Cc4ccc(Cl)cc4)CC3)[C@@H](C)C2)c(Cl)c1` [compound 385] the figure was under 0.025 µM.
`CC[C@H]1CN(c2ncc(CNS(=O)(=O)CC)cc2Cl)CCN1C1CCN(Cc2ccc(Cl)cc2F)CC1` [compound 386] came in with an IC50 of under 0.025 µM.
Regarding `CC[C@H]1CN(c2ncc(CNC(C)=O)cc2Cl)CCN1C1CCN(Cc2ccc(Cl)cc2F)CC1` [compound 387], the IC50 was under 0.025 µM.
With `CCCS(=O)(=O)NCc1cnc(N2CCN(C3CCN(Cc4ccc(Cl)cc4F)CC3)[C@@H](CC)C2)c(Cl)c1` [compound 388] the figure was under 0.025 µM.
With `CC[C@H]1CN(c2ncc(CN/C(N)=N\C#N)cc2Cl)CCN1C1CCN(Cc2ccc(Cl)cc2F)CC1` [compound 389] the figure was under 0.025 µM; with `CC[C@H]1CN(c2ncc(CNC(=O)NC3CCCCC3)cc2Cl)CCN1C1CCN(Cc2ccc(Cl)cc2F)CC1` [compound 390], under 0.025 µM; with `CC[C@H]1CN(c2ncc(CNS(=O)(=O)N(C)C)cc2Cl)CCN1C1CCN(Cc2ccc(Cl)cc2F)CC1` [compound 391], under 0.025 µM.
Regarding `CC[C@H]1CN(c2ncc(CO)cc2Cl)CCN1C1CCN(Cc2ccc(Cl)cc2F)CC1` [compound 392], the IC50 was under 0.025 µM.
For the molecule `CC[C@H]1CN(c2ncc(CNC)cc2Cl)CCN1C1CCN(Cc2ccc(Cl)cc2F)CC1` [compound 393], the IC50 is under 0.025 µM.
The molecule `CC[C@H]1CN(c2ncc(CNC(=N)N)cc2Cl)CCN1C1CCN(Cc2ccc(Cl)cc2F)CC1` [compound 394] gave an IC50 of under 0.025 µM.
For `CC[C@H]1CN(c2ncc(CNC3CC3)cc2Cl)CCN1C1CCN(Cc2ccc(Cl)cc2F)CC1` [compound 395], the IC50 is under 0.025 µM.
With `CC[C@H]1CN(c2ncc(CNC(=O)NCC(F)(F)F)cc2Cl)CCN1C1CCN(C(=O)c2ccc(Br)cc2)CC1` [compound 396] the figure was under 0.025 µM; with `CCNC(=O)NCc1cnc(N2CCN(C3CCN(Cc4ccc(Cl)cc4)CC3)[C@@H](CC)C2)c(Cl)c1` [compound 397], under 0.025 µM; with `CC[C@H]1CN(c2ncc(CNC(=O)Nc3ccc(F)c(F)c3)cc2Cl)CCN1C1CCN(Cc2ccc(Cl)cc2)CC1` [compound 400], under 0.025 µM.
With `CC[C@H]1CN(c2ncc(CNC(=O)NN)cc2Cl)CCN1C1CCN(Cc2ccc(Cl)cc2F)CC1` [compound 401] the figure was under 0.025 µM.
In turn, `CC[C@H]1CN(c2ncc(COC(=O)Nc3c(C)noc3C)cc2Cl)CCN1C1CCN(Cc2ccc(Cl)cc2F)CC1` [compound 402] had an IC50 of under 0.025 µM.
`CC[C@H]1CN(c2ncc(CN/C(=N\C#N)NC)cc2Cl)CCN1C1CCN(Cc2ccc(Cl)cc2F)CC1` [compound 403] had an IC50 of under 0.025 µM.
In turn, `CC[C@H]1CN(c2ncc(C(N)=NO)cc2Cl)CCN1C1CCN(Cc2ccc(Cl)cc2F)CC1` [compound 404] displayed an IC50 of under 0.025 µM.
In the case of `CC[C@H]1CN(c2ncc(COC(=O)NC(C)C)cc2Cl)CCN1C1CCN(Cc2ccc(Cl)cc2F)CC1` [compound 405], the IC50 was under 0.025 µM.
With `CCNCc1cnc(N2CCN(C3CCN(Cc4ccc(Cl)cc4F)CC3)[C@@H](CC)C2)c(Cl)c1` [compound 406] the figure was under 0.025 µM.
With `CC[C@H]1CN(c2ncc(CNc3nccs3)cc2Cl)CCN1C1CCN(Cc2ccc(Cl)cc2F)CC1` [compound 407] the figure was under 0.025 µM; with `CC[C@H]1CN(c2ncc(CNC(=O)N(C(=O)NC3CC3)C3CC3)cc2Cl)CCN1C1CCN(Cc2ccc(Br)cc2F)CC1` [compound 408], under 0.025 µM.
With `CCNC(=O)N(CC)Cc1cnc(N2CCN(C3CCN(Cc4ccc(Cl)cc4F)CC3)[C@@H](CC)C2)c(Cl)c1` [compound 409] the figure was 0.025 to 0.1 µM; with `CC[C@H]1CN(c2ncc(CNC(=O)N(C)C)cc2Cl)CCN1C1CCN(Cc2ccc(Cl)cc2F)CC1` [compound 410], 0.025 to 0.1 µM; with `CCC(=O)c1cnc(N2CCN(C3CCN(Cc4ccc(Cl)cc4F)CC3)[C@@H](CC)C2)c(Cl)c1` [compound 411], 0.025 to 0.1 µM.
`CC[C@H]1CN(c2ncc(CNc3c(NC4CC4)c(=O)c3=O)cc2Cl)CCN1C1CCN(Cc2ccc(Br)cc2F)CC1` [compound 412] returned an IC50 of 0.025 to 0.1 µM.
With `CC[C@H]1CN(c2ncc(CN)cc2Cl)CCN1C1CCN(Cc2ccc(Cl)cc2)CC1` [compound 413] the figure was 0.025 to 0.1 µM; with `CC[C@H]1CN(c2ncc(CN(C3CC3)S(C)(=O)=O)cc2Cl)CCN1C1CCN(Cc2ccc(Cl)cc2F)CC1` [compound 414], 0.025 to 0.1 µM; with `CCOC(=N)c1cnc(N2CCN(C3CCN(Cc4ccc(Cl)cc4F)CC3)[C@@H](CC)C2)c(Cl)c1` [compound 415], 0.025 to 0.1 µM.
With `CC[C@H]1CN(c2ncc(CNS(=O)(=O)CC(F)(F)F)cc2Cl)CCN1C1CCN(Cc2ccc(Cl)cc2F)CC1` [compound 416] the figure was 0.025 to 0.1 µM; with `CC[C@H]1CN(c2ncc(CNC(=O)Nc3c(C)noc3C)cc2Cl)CCN1C1CCN(Cc2ccc(Cl)cc2F)CC1` [compound 417], 0.025 to 0.1 µM; with `CC[C@H]1CN(c2ncc(CO)cc2Cl)CCN1C1CCN(C(=O)c2ccc(Br)cc2)CC1` [compound 418], 0.025 to 0.1 µM.
With `CC[C@H]1CN(c2ncc(C(=O)C3CC3)cc2Cl)CCN1C1CCN(Cc2ccc(Cl)cc2F)CC1` [compound 419] the figure was 0.025 to 0.1 µM; with `CC[C@H]1CN(c2ncc(COC(=O)Nc3ccc(F)cc3)cc2Cl)CCN1C1CCN(Cc2ccc(Cl)cc2F)CC1` [compound 420], 0.025 to 0.1 µM; with `CC[C@H]1CN(c2ncc(CN)cc2Cl)CCN1C1CCN(Cc2ccc(Br)cc2F)CC1` [compound 421], 0.025 to 0.1 µM.
As for `CCOC(CNC(=N)c1cnc(N2CCN(C3CCN(Cc4ccc(Cl)cc4F)CC3)[C@@H](CC)C2)c(Cl)c1)OCC` [compound 422], the IC50 was 0.025 to 0.1 µM.
With `CCNC(=O)N(Cc1cnc(N2CCN(C3CCN(Cc4ccc(Cl)cc4F)CC3)[C@@H](CC)C2)c(Cl)c1)C1CC1` [compound 423] the figure was 0.025 to 0.1 µM; with `CCOCc1cnc(N2CCN(C3CCN(Cc4ccc(Cl)cc4F)CC3)[C@@H](CC)C2)c(Cl)c1` [compound 424], 0.025 to 0.1 µM; with `CC[C@H]1CN(c2ncc(CN)cc2Cl)CCN1C1CCN(Cc2ccc(Cl)cc2F)CC1` [compound 425], 0.025 to 0.1 µM.
With `CC[C@H]1CN(c2ncc(C(=N)NN)cc2Cl)CCN1C1CCN(Cc2ccc(Cl)cc2F)CC1` [compound 426], the IC50 lay within 0.025 to 0.1 µM.
With `CC[C@H]1CN(c2ncc(C(C)=O)cc2Cl)CCN1C1CCN(Cc2ccc(Cl)cc2F)CC1` [compound 427] the figure was 0.025 to 0.1 µM; with `CC[C@H]1CN(c2ncc(C(=O)c3ncco3)cc2Cl)CCN1C1CCN(Cc2ccc(Cl)cc2F)CC1` [compound 428], 0.025 to 0.1 µM.
With `C[C@H]1CN(c2ncc(C(=N)N)cc2Cl)CCN1C1CCN(Cc2ccc(Cl)cc2)CC1` [compound 429] the figure was 0.025 to 0.1 µM; with `CCNC(=N)c1cnc(N2CCN(C3CCN(Cc4ccc(Cl)cc4)CC3)[C@@H](C)C2)c(Cl)c1` [compound 430], 0.025 to 0.1 µM.
On to `CC[C@H]1CN(c2ncc(CNC3=NCCN3)cc2Cl)CCN1C1CCN(Cc2ccc(Cl)cc2F)CC1` [compound 431], for which the IC50 was 0.025 to 0.1 µM.
`CC[C@H]1CN(c2ncc(CN(C(=O)N(C)C)C3CC3)cc2Cl)CCN1C1CCN(Cc2ccc(Cl)cc2F)CC1` [compound 432] yielded an IC50 of 0.025 to 0.1 µM.
With `CC[C@H]1CN(c2ncc(C(C)O)cc2Cl)CCN1C1CCN(Cc2ccc(Cl)cc2F)CC1` (stereo partly drawn) [compound 433] the figure was over 0.1 µM; with `CCNC(=O)OC(C)c1cnc(N2CCN(C3CCN(Cc4ccc(Cl)cc4F)CC3)[C@@H](CC)C2)c(Cl)c1` (stereo partly drawn) [compound 434], over 0.1 µM.
With `CC[C@H]1CN(c2ncc(C(=O)OC)cc2Cl)CCN1C1CCN(Cc2ccc(Br)cc2F)CC1` [compound 435] the figure was over 0.1 µM.
With `CC[C@H]1CN(c2ncc(C(=O)O)cc2Cl)CCN1C1CCN(Cc2ccc(Cl)cc2F)CC1` [compound 436] the figure was over 0.1 µM; with `CC[C@H]1CN(c2ncc(C(O)c3ncco3)cc2Cl)CCN1C1CCN(Cc2ccc(Cl)cc2F)CC1` (stereo partly drawn) [compound 437], over 0.1 µM.
On to `CC[C@H]1CN(c2c(Cl)cc(C(=O)OC)c[n+]2[O-])CCN1C1CCN(Cc2ccc(Cl)cc2F)CC1` [compound 438], for which the IC50 was over 0.1 µM.
With `CC/N=C(/NCC)c1cnc(N2CCN(C3CCN(Cc4ccc(Cl)cc4)CC3)[C@@H](C)C2)c(Cl)c1` [compound 439] the figure was over 0.1 µM.
With `C[C@H]1CN(c2ncc(CN)cc2Cl)CCN1C1CCN(Cc2ccc(Cl)cc2)CC1` [compound 440] the figure was over 0.1 µM; with `CC[C@H]1CN(c2ncc(C(=O)OC)c(N)c2Cl)CCN1C1CCN(Cc2ccc(Cl)cc2F)CC1` [compound 441], over 0.1 µM; with `CC[C@H]1CN(c2ncc(C(=N)N)cc2Cl)CCN1C1CCN(C(=O)c2ccc(Cl)nc2N)CC1` [compound 442], over 0.1 µM.
On to `CC[C@H]1CN(c2ncc(CNS(=O)(=O)C(F)(F)F)cc2Cl)CCN1C1CCN(Cc2ccc(Cl)cc2F)CC1` [compound 443], for which the IC50 was over 0.1 µM.
In the case of `CCC(=NO)c1cnc(N2CCN(C3CCN(Cc4ccc(Cl)cc4F)CC3)[C@@H](CC)C2)c(Cl)c1` [compound 444], the IC50 is over 0.1 µM.
